Measured values as given in patent US20250154173A1 (Merck Sharp & Dohme LLC, priority 2023, published 2025).

molecular target: T1, GST-RIPK1 (recombinant GST-RIPK1 kinase domain (residues 1-327)) (Homo sapiens, UniProt Q13546); test: RIPK1-ADP-Glo Enzymatic Assay; format: biochemical; conditions: ten-point titration, top compound concentration of 100000 nM; 25 nM GST-RIPK1, 300 μM ATP, 3 μM dephosphorylated-MBP; 30 min pre-incubation, 150 min reaction
T1 construct: recombinant GST-RIPK1 kinase domain (residues 1-327) enzyme produced from baculovirus-transfected Sf21 cells; host or cells: baculovirus-transfected Sf21 insect cells
T1 sequence (Q13546 1-327): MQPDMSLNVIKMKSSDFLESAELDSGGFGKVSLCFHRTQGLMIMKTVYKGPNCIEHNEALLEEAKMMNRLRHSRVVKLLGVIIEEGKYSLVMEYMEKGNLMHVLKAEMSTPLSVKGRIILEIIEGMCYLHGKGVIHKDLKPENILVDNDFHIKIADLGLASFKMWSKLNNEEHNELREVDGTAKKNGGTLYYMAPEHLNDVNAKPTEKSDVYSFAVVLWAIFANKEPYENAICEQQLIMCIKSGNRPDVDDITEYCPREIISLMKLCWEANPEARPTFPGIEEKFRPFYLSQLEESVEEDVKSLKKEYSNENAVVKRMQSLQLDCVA
Summary of the method: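 GST-RIPK1 kinase domain (residues 1-327, Sf21-expressed), 25 nM, preincubated 30 min with compound, then reacted 150 min with 300 μM ATP and 3 μM dephosphorylated MBP in pH 7.3 Hepes buffer, 1% DMSO. ADP measured by ADP-Glo luminescence; EC50 from ten-point titration (top 100000 nM), four-parameter fit.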

EC50 [nM] | Structure (SMILES)
22 | O=C1N2C(CC[C@H]2c2cnccn2)OC12CC(OCc1cc3cncnc3s1)C2 (stereo partly drawn) [Example 18.20, (5′S)-5′-(pyrazin-2-yl)-3-[(thieno[2,3-d]pyrimidin-6-yl)methoxy]tetrahydro-3′H-spiro[cyclobutane-1,2′-pyrrolo[2,1-b][1,3]oxazol]-3′-one]
32 | O=C1N2C(CC[C@H]2c2cnccn2)OC12CC(OCc1cccc3cncc(F)c13)C2 (stereo partly drawn) [Example 18.21, (5′S)-3-[(4-fluoroisoquinolin-5-yl)methoxy]-5′-(pyrazin-2-yl)tetrahydro-3′H-spiro[cyclobutane-1,2′-pyrrolo[2,1-b][1,3]oxazol]-3′-one]
74 | O=C1N2C(CC[C@H]2c2cnccn2)OC12CC(OCc1ccc3nc(C4CC4)cn3c1)C2 (stereo partly drawn) [Example 18.22, (5′S)-3-[(2-cyclopropylimidazo[1,2-a]pyridin-6-yl)methoxy]-5′-(pyrazin-2-yl)tetrahydro-3′H-spiro[cyclobutane-1,2′-pyrrolo[2,1-b][1,3]oxazol]-3′-one]
27 | O=C1N2[C@@H](CC[C@H]2c2cnccn2)O[C@]12C[C@@H](OCc1ccc3scnc3c1)C2 [Example 18.23, (1s,3S,5′S,7a′R)-3-[(1,3-benzothiazol-5-yl)methoxy]-5′-(pyrazin-2-yl)tetrahydro-3′H-spiro[cyclobutane-1,2′-pyrrolo [2,1-b][1,3]oxazol]-3′-one]
310 | O=C1N2C(CC[C@H]2c2cnccn2)OC12CC(OCc1cnc(N3CCOCC3)nc1)C2 (stereo partly drawn) [Example 18.24, (5′S)-3-{[2-(morpholin-4-yl)pyrimidin-5-yl]methoxy}-5′-(pyrazin-2-yl)tetrahydro-3′H-spiro[cyclobutane-1,2′-pyrrolo[2,1-b][1,3]oxazol]-3′-one]
48 | O=C1N2C(CC[C@H]2c2cnccn2)OC12CC(OCc1ccc(Cn3ccnc3)cc1)C2 (stereo partly drawn) [Example 18.25, (5′S)-3-({4-[(1H-imidazol-1-yl)methyl]phenyl}methoxy)-5′-(pyrazin-2-yl)tetrahydro-3′H-spiro[cyclobutane-1,2′-pyrrolo[2,1-b][1,3]oxazol]-3′-one]
34 | O=C1N2C(CC[C@H]2c2cnccn2)OC12CC(OCc1cccc(Cn3ccnn3)c1)C2 (stereo partly drawn) [Example 18.26, (5′S)-5′-(pyrazin-2-yl)-3-({3-[(1H-1,2,3-triazol-1-yl)methyl]phenyl}methoxy) tetrahydro-3′H-spiro[cyclobutane-1,2′-pyrrolo[2,1-b][1,3]oxazol]-3′-one]
126 | O=C1N2C(CC[C@H]2c2cnccn2)OC12CC(OCc1cncc(OCCF)c1)C2 (stereo partly drawn) [Example 18.27, (5′S)-3-{[5-(2-fluoroethoxy)pyridin-3-yl]methoxy}-5′-(pyrazin-2-yl)tetrahydro-3′H-spiro[cyclobutane-1,2′-pyrrolo[2,1-b][1,3]oxazol]-3′-one]
174 | N#CC1(c2ccc(COC3CC4(C3)OC3CC[C@@H](c5cnccn5)N3C4=O)cn2)CCC1 (stereo partly drawn) [Example 18.28, 1-[5-({[(5′S)-3′-oxo-5′-(pyrazin-2-yl)tetrahydro-3′H-spiro[cyclobutane-1,2′-pyrrolo[2,1-b][1,3]oxazol]-3-yl]oxy}methyl)pyridin-2-yl]cyclobutane-1-carbonitrile]
12 | N#CC1(c2ccc(COC3CC4(C3)OC3CC[C@@H](c5cnccn5)N3C4=O)c(Cl)c2)CC1 (stereo partly drawn) [Example 18.29, 1-[3-chloro-4-({[(5′S)-3′-oxo-5′-(pyrazin-2-yl)tetrahydro-3′H-spiro[cyclobutane-1,2′-pyrrolo[2,1-b][1,3]oxazol]-3-yl]oxy}methyl)phenyl]cyclopropane-1-carbonitrile]
45 | O=C1N2C(CC[C@H]2c2cnccn2)OC12CC(OCc1ccc(-c3ccon3)cc1)C2 (stereo partly drawn) [Example 18.30, (5′S)-3-{[4-(1,2-oxazol-3-yl)phenyl]methoxy}-5′-(pyrazin-2-yl)tetrahydro-3′H-spiro[cyclobutane-1,2′-pyrrolo[2,1-b][1,3]oxazol]-3′-one]
428 | O=C1N2C(CC[C@H]2c2cnccn2)OC12CC(OCc1ccnc3ccnn13)C2 (stereo partly drawn) [Example 18.31, (5′S)-5′-(pyrazin-2-yl)-3-[(pyrazolo[1,5-a]pyrimidin-7-yl)methoxy]tetrahydro-3′H-spiro[cyclobutane-1,2′-pyrrolo[2,1-b][1,3]oxazol]-3′-one]
231 | COc1cc(COC2CC3(C2)OC2CC[C@@H](c4cnccn4)N2C3=O)cc2nccn12 (stereo partly drawn) [Example 18.34, (5′S)-3-[(5-methoxyimidazo[1,2-a]pyridin-7-yl)methoxy]-5′-(pyrazin-2-yl)tetrahydro-3′H-spiro[cyclobutane-1,2′-pyrrolo[2,1-b][1,3]oxazol]-3′-one]
14 | O=C1N2C(CC[C@H]2c2cnccn2)OC12CC(OCc1ccc(N3CCOCC3)nc1)C2 (stereo partly drawn) [Example 18.35, (5′S)-3-{[6-(morpholin-4-yl)pyridin-3-yl]methoxy}-5′-(pyrazin-2-yl)tetrahydro-3′H-spiro[cyclobutane-1,2′-pyrrolo[2,1-b][1,3]oxazol]-3′-one]
28 | O=C1N2C(CC[C@H]2c2cnccn2)OC12CC(OCc1cccc3nccn13)C2 (stereo partly drawn) [Example 18.36, (5′S)-3-[(imidazo[1,2-a]pyridin-5-yl)methoxy]-5′-(pyrazin-2-yl)tetrahydro-3′H-spiro[cyclobutane-1,2′-pyrrolo[2,1-b][1,3]oxazol]-3′-one]
15 | O=C1N2C(CC[C@H]2c2cnccn2)OC12CC(OCc1ccc3cnccc3c1)C2 (stereo partly drawn) [Example 18.37, (5′S)-3-[(isoquinolin-6-yl)methoxy]-5′-(pyrazin-2-yl)tetrahydro-3′H-spiro[cyclobutane-1,2′-pyrrolo[2,1-b][1,3]oxazol]-3′-one]
12 | COc1ccc(COC2CC3(C2)OC2CC[C@@H](c4cnccn4)N2C3=O)cc1CC#N (stereo partly drawn) [Example 18.38, [2-methoxy-5-({[(5′S)-3′-oxo-5′-(pyrazin-2-yl)tetrahydro-3′H-spiro[cyclobutane-1,2′-pyrrolo[2,1-b][1,3]oxazol]-3-yl]oxy}methyl)phenyl]acetonitrile]
301 | O=C1N2C(CC[C@H]2c2cnccn2)OC12CC(OCc1cc(-n3ccnc3)ccn1)C2 (stereo partly drawn) [Example 18.39]
119 | N#Cc1ccc(OC2CCC2)cc1COC1CC2(C1)OC1CC[C@@H](c3cnccn3)N1C2=O (stereo partly drawn) [Example 18.40, 4-(cyclobutyloxy)-2-({[(5′S)-3′-oxo-5′-(pyrazin-2-yl)tetrahydro-3′H-spiro[cyclobutane-1,2′-pyrrolo[2,1-b][1,3]oxazol]-3-yl]oxy}methyl)benzonitrile]
53 | COc1ccc2cc(COC3CC4(C3)OC3CC[C@@H](c5cnccn5)N3C4=O)cc(C)c2n1 (stereo partly drawn) [Example 18.41, (5′S)-3-[(2-methoxy-8-methylquinolin-6-yl)methoxy]-5′-(pyrazin-2-yl)tetrahydro-3′H-spiro[cyclobutane-1,2′-pyrrolo[2,1-b][1,3]oxazol]-3′-one]
110 | O=C1N2C(CC[C@H]2c2cnccn2)OC12CC(OCc1cnc3c(c1)CCCC3)C2 (stereo partly drawn) [Example 18.42, (5′S)-5′-(pyrazin-2-yl)-3-[(5,6,7,8-tetrahydroquinolin-3-yl)methoxy]tetrahydro-3′H-spiro[cyclobutane-1,2′-pyrrolo[2,1-b][1,3]oxazol]-3′-one]
6 | O=C1N2C(CC[C@H]2c2cnccn2)OC12CC(OCc1cc3ncccc3s1)C2 (stereo partly drawn) [Example 18.43, (5′S)-5′-(pyrazin-2-yl)-3-[(thieno[3,2-b]pyridin-2-yl)methoxy]tetrahydro-3′H-spiro[cyclobutane-1,2′-pyrrolo[2,1-b][1,3]oxazol]-3′-one]
241 | O=C1N2C(CC[C@H]2c2cnccn2)OC12CC(OCc1ccc(OCCF)nn1)C2 (stereo partly drawn) [Example 18.44, (5′S)-3-{[6-(2-fluoroethoxy)pyridazin-3-yl]methoxy}-5′-(pyrazin-2-yl)tetrahydro-3′H-spiro[cyclobutane-1,2′-pyrrolo[2,1-b][1,3]oxazol]-3′-one]
159 | N#Cc1ccncc1COC1CC2(C1)OC1CC[C@@H](c3cnccn3)N1C2=O (stereo partly drawn) [Example 18.45, 3-({[(5′S)-3′-oxo-5′-(pyrazin-2-yl)tetrahydro-3′H-spiro[cyclobutane-1,2′-pyrrolo[2,1-b][1,3]oxazol]-3-yl]oxy}methyl)pyridine-4-carbonitrile]
128 | O=C1N2C(CC[C@H]2c2cnccn2)OC12CC(OCc1cnc3nccn3c1)C2 (stereo partly drawn) [Example 18.46, (5′S)-3-[(imidazo[1,2-a]pyrimidin-6-yl)methoxy]-5′-(pyrazin-2-yl)tetrahydro-3′H-spiro[cyclobutane-1,2′-pyrrolo[2,1-b][1,3]oxazol]-3′-one]

Structure (SMILES) | EC50 [nM]
COc1ccc2cc(COC3CC4(C3)OC3CC[C@@H](c5cnccn5)N3C4=O)ncc2n1 (stereo partly drawn) [Example 18.32, (5′S)-3-[(2-methoxy-1,7-naphthyridin-6-yl)methoxy]-5′-(pyrazin-2-yl)tetrahydro-3′H-spiro[cyclobutane-1,2′-pyrrolo[2,1-b][1,3]oxazol]-3′-one] | 143
O=C1N2C(CC[C@H]2c2cnccn2)OC12CC(OCc1cc(Cl)ccc1-c1cnco1)C2 (stereo partly drawn) [Example 18.33, (5′S)-3-{[5-chloro-2-(1,3-oxazol-5-yl)phenyl]methoxy}-5′-(pyrazin-2-yl)tetrahydro-3′H-spiro[cyclobutane-1,2′-pyrrolo[2,1-b][1,3]oxazol]-3′-one] | 43
